Experimental data taken from article PMC7331992, “Targeting the oral plaque microbiome with immobilized anti-biofilm peptides at tooth-restoration interfaces” (PLoS ONE, 2020).
Square brackets hold non-standard residues; d marks the D form. Ends that are not written are not given here. Peptide text beside a SMILES is read from it.

Key:
#311 plaque sample = details: cultures of highly adherent #311 plaque sample; several batches; n = 3; Fig 2C; cited from earlier work
Protocol: (§1) MICs of D-GL13K against cultures of all 10 plaque biofilm samples were in the range 1–4 μg/ml (Fig 2A). […] Potency of the rest of AAMPs candidates was tested against cultures of the highly adherent #311 sample. […] The controls, scrambled amino acid versions of D- ...

[1] = system: plaque biofilm along dentin-composite interface; experiment: Multiphoton live/dead bioimaging of plaque biofilm along dentin-composite interfacial gap; assay type: cell-based, plaque bacteria (human subject); bovine dentin; details: D-GL13K-coated dentin
From the text: Roots of bovine teeth were used to prepare restored dentin-composite discs (Fig 1). After the crowns and apical thirds of each tooth were cut off, the root canals were enlarged to 2 mm in diameter, using 1.9-mm diameter fiber post drills (RelyX™ Fiber Post, 3M, St. Paul, MN, USA). The outer surface of the roots was trimmed down to 5 mm in diameter using a lathe to remove cementum and external layers of dentin. The obtained dentin tubes (5 mm in outer diameter and 2 mm in inner diameter) were water rinsed and stored in 0.5 chloramine T solution at 4 °C until the restorative procedures were performed. […]
Multiphoton images were acquired in a Multiphoton upright microscope equipped with an A1R laser scan head (Nikon FN1, Tokyo, Japan). […] Multiphoton excitation fluorescence was collected in the epi direction in the green (470–550) and orange-red (570–640) channels. […] Images were compiled and analyzed with NIS Elements software (Version 4.11.0, Nikon, Tokyo, Japan).
Quantification of red and green cells was done by standard co-localization analysis using Fiji image processing package. The percentage of red cells, which is usually associated to dead cells was calculated as: deadcells%=(totalvolumeofredcells/totalvolumeofcells)x100

#311 plaque biofilm [2] = details: Fig 2B, cited from earlier work
Protocol: as §1, with “However, biofilms show increased resistance to antimicrobial agents than suspension cultures.” for “The controls, scrambled amino acid versions of D- ...”

[3] = system: supragingival dental plaque samples from 10 high caries risk subjects; assay type: cell-based, plaque bacteria (human subjects); details: 24 h
From the text: After a written informed consent was obtained from all participants, supragingival dental plaque samples from 10 high caries risk subjects were collected from either the occlusal or buccal margin of existing restorations at the University of Minnesota (Institutional Review Board #1403M48865). Each subject was examined for a formal caries risk assessment (CAMBRA) which classifies the caries risk status into 3 categories (low, moderate, high) considering a wide-range of biological predisposing factors and the protective factors, 8 factors each, in addition to the comprehensive clinical examination. All subjects had experienced active carious lesions and were still at high risk for future caries; otherwise, they were in good general health and had not taken antibiotics within 3 months of plaque sampling.
All dental plaque samples were collected using a sterile sickle scaler, and each sample was immediately deposited into a vial containing 1 ml pre-reduced anaerobic transfer medium (Anaerobe Systems, Morgan Hill, CA, USA). […] After 24 h of peptide treatment, absorbance at 600 nm was measured using a microtiter plate reader (Bio-Tek Instruments, Winooski, VT, USA). Plaque sample #311 was challenging in the planktonic state and, additionally, it formed the highest adherent biofilm using the Crystal Violet assay as measured by Dr. Robert S. Jones lab (data not shown). […]

[4] = system: plaque biofilm microbial community; experiment: 16S rRNA gene sequencing of plaque biofilm community on AAMPs-coated HA discs; assay type: cell-based, plaque bacteria (human subject)
Protocol: PMA treatment was conducted for selective detection of viable bacteria. Prior to DNA extraction, the collected 1ml of bacterial cells was sub-divided into 0.5ml with PMA and the other 0.5ml without PMA treatment for each sample for fulfilling a pairs-matched statistical design (S1 Fig in S1 File). PMA was added to the assigned samples for a final concentration of 50 μM. The samples were incubated in the dark for 10 minutes on a shaker at room temperature. The samples were exposed to a PMA-Lite LED photolysis device light (Biotium, Fremont, CA, USA) to cross-link PMA to DNA for 15 minutes. Cells were pelleted by centrifuging at 5000x g for 10 minutes in preparation for genomic DNA extraction.
Genomic DNA was extracted from all samples; i.e., PMA and non-PMA treated bacteria. The protocol amended from Epicentre MasterPure™ DNA Purification Kit and Epicentre MasterPure™ Gram Positive DNA Purification Kit was followed (http://homings.forsyth.org/DNA%20Isolation%20Protocol.pdf, last access 03/31/2020).
The extracted DNA was submitted to the University of Minnesota Genomics Center for dual-indexed 16S rRNA gene amplicon sequencing using the V3-V4 region on the Illumina MiSeq platform 300PE.
Primers where removed with FilterandTrim, paired reads were merged with mergePairs, Bimeras where removed in with removeBimeraDenovo, and Silva version 132 was used for taxonomy identification. Sequences with a length < 251 and > 255 were removed as well as sequences with a total read count across all samples equal to 1. Further analysis of the ASV table was performed in R with the vegan, reshape2, ggplot2, grid, gridExtra, plyr, dplyr packages. The alpha diversity indices of Shannon, Simpson, Inverse Simpson (InvSympson) were calculated at 97% identity. Beta diversity analysis was performed by principal coordinates analysis (PCoA) based on Bray-Curtis distances at the Operational Taxonomic Unit (OTU) level. […]

#311 plaque biofilm [5] = experiment: Live/dead viability assay of plaque biofilms on peptide-coated HA discs; assay type: cell-based, plaque bacteria (human subject)
Protocol: Hydroxyapatite (HA) discs (9.65 mm diameter by 1.52 mm thickness; Clarkson Chromatography Products, Williamsport, PA, USA) were sterilized by autoclaving to be used as plaque biofilm substrates. Both sides of each disc were etched by 32% phosphoric acid gel (Scotchbond™ Universal Etchant, 3M, St. Paul, MN, USA) for 15 s followed by 10 s water-rinse and 10 s air-dry. The discs were coated, incubated with a thin layer of peptide solution at 37 °C for 1 min, by 1 mg/ml of either D-GL13K or 1018 or DJK2 followed by 60 s air-dry. The control discs were etched, but were not coated with peptides. All samples were subject to ultrasonication in water bath for 15 min to remove any unattached peptides. X-ray Photoelectron Spectroscopy (XPS; SSX-100, Surface Science Laboratories; Al Kα X-ray, 1 mm spot-size, 35° take-off angle) was used to detect the atomic composition of the coated surfaces. […]
Working solution of fluorescent stains (L7012, LIVE/DEAD BacLight Bacterial Viability Kit, ThermoFisher Scientific, Waltham, MA, USA) was prepared by adding 3 μl of SYTO® 9 (live cell stain) and 3 μl of Propidium iodide (PI, dead cell stain) to 1 ml of sterilized Milli-Q® ultrapure water. […] The regrown biofilms were re-assessed using the same Live/Dead assay.

Row | Compound | MIC (#311 plaque sample) [µg/mL] | antibiofilm potency on 18-day-old interfacial plaque biofilm ([1]; 18-day-old biofilm, 3D rendering) | Percentage of dead cells ([1]; interfacial 9-day-old biofilm, average ± SD, n=6, control 31.5%± 8%, p = 0.018) | inhibition of #311 plaque biofilm (#311 plaque biofilm [2]; 25 μg/ml D-GL13K, 6-day-old biofilm) | suppression of biofilm biovolume compared to controls (#311 plaque biofilm [2]; highly adherent plaque biofilm) [%] | MIC [3] [µg/mL] | bacterial community richness (Shannon index) compared to controls ([4]; 48-h biofilm on coated HA discs, genus level) | abundance of less abundant taxa Actinomyces and Gemella compared to controls ([4]; ANCOM, coated HA discs) | number and relative abundance of Streptococcus and Veillonella combined versus controls ([4]; Shannon, Simpson, InvSimpson indices, coated HA discs) | live/dead assay, effect on bacteria (#311 plaque biofilm [5]; D-GL13K-coated HA discs, 48 h biofilm growth) | antibiofilm activity of challenged coatings (#311 plaque biofilm [5]; coating challenged by 45 min ultrasonication or 45 min 30% acetic acid (pH 2.4), biofilms regrown 5 and 15 days)
1 | L-GL13K: antimicrobial amphipathic peptide GL13K, L-amino acids (GKIIKLKASLKLL; not fully specified (C-terminus)) | 8 |  |  |  |  |  |  |  |  |  | 
2 | CC[C@@H](C)[C@@H](NC(=O)[C@@H](CCCCN)NC(=O)CN)C(=O)N[C@@H](C(=O)N[C@H](CCCCN)C(=O)N[C@H](CC(C)C)C(=O)N[C@H](CCCCN)C(=O)N[C@H](C)C(=O)N[C@H](CO)C(=O)N[C@H](CC(C)C)C(=O)N[C@H](CCCCN)C(=O)N[C@H](CC(C)C)C(=O)N[C@H](CC(C)C)C(N)=O)[C@H](C)CC [D-GL13K] (H-G[dK][dI][dI][dK][dL][dK][dA][dS][dL][dK][dL][dL]-NH2; N-terminus and C-terminus assumed) | 1 to 2 | maintained their antibiofilm potency | 60% ± 10% | around 4 fold | > 70 | 1 to 4 | significantly reduced | significant reduction | significant reduction | uniform and marked loss of the integrity of bacterial membranes | sustained antibiofilm activity
